Read-outs that look alike come from different tables or passages of the source.
What was measured:
orexin-1 = orexin-1 (Homo sapiens (Human), UniProt O43613); experiment: Intracellular calcium measurement (FLIPR), CHO cells expressing human orexin-1 receptor, 3 nM orexin-A; assay type: cell-based; conditions: read-out: IC50 OX1
Protocol: (§1) In Vitro Assay: Intracellular Calcium Measurements:
(§2) Chinese hamster ovary (CHO) cells expressing the human orexin-1 receptor and the human orexin-2 receptor, respectively, are grown in culture medium (Ham F-12 with L-Glutamine) containing 300 μg/mL G418, 100 U/mL penicillin, 100 μg/mL streptomycin and 10% heat inactivated fetal calf serum (FCS). The cells are seeded at 20,000 cells/well into 384-well black clear bottom sterile plates (Greiner). The seeded plates are incubated overnight at 37° C. in 5% CO2.
(§3) Human orexin-A as an agonist is prepared as 1 mM stock solution in MeOH: water (1:1), diluted in HBSS containing 0.1% bovine serum albumin (BSA), NaHCO3: 0.375 g/L and 20 mM HEPES for use in the assay at a final concentration of 3 nM.
(§4) Antagonists are prepared as 10 mM stock solution in DMSO, then diluted in 384-well plates using DMSO followed by a transfer of the dilutions into in HBSS containing 0.1% bovine serum albumin (BSA), NaHCO3: 0.375 g/L and 20 mM HEPES. On the day of the assay, 50 μL of staining buffer (HBSS containing 1% FCS, 20 mM HEPES, NaHCO3: 0.375 g/L, 5 mM probenecid (Sigma) and 3 μM of the fluorescent calcium indicator fluo-4 AM (1 mM stock solution in DMSO, containing 10% pluronic) is added to each well. The 384-well cell-plates are incubated for 50 min at 37° C. in 5% CO2 followed by equilibration at rt for 30 min before measurement.
(§5) Within the Fluorescent Imaging Plate Reader (FLIPR Tetra, Molecular Devices), antagonists are added to the plate in a volume of 10 μL/well, incubated for 120 min and finally 10 μL/well of agonist is added. Fluorescence is measured for each well at 1 second intervals, and the height of each fluorescence peak is compared to the height of the fluorescence peak induced by 3 nM orexin-A with vehicle in place of antagonist. […] Optimized conditions were achieved by adjustment of pipetting speed and cell splitting regime. The calculated IC50 values may fluctuate depending on the daily cellular assay performance. Fluctuations of this kind are known to those skilled in the art.

human orexin-2 receptor = human orexin-2 receptor (Homo sapiens (Human), UniProt O43614); experiment: Intracellular calcium measurement (FLIPR), CHO cells expressing human orexin-2 receptor, 3 nM orexin-A; assay type: cell-based; conditions: read-out: IC50 OX2
Protocol: as §1, §2, §3, §4, §5

[1] = CHO cells expressing human orexin-1 receptor, FLIPR, 3 nM orexin-A, geometric mean if determined several times
[2] = CHO cells expressing human orexin-2 receptor, FLIPR, 3 nM orexin-A, geometric mean if determined several times

Sequence of orexin-1 (O43613 whole entry): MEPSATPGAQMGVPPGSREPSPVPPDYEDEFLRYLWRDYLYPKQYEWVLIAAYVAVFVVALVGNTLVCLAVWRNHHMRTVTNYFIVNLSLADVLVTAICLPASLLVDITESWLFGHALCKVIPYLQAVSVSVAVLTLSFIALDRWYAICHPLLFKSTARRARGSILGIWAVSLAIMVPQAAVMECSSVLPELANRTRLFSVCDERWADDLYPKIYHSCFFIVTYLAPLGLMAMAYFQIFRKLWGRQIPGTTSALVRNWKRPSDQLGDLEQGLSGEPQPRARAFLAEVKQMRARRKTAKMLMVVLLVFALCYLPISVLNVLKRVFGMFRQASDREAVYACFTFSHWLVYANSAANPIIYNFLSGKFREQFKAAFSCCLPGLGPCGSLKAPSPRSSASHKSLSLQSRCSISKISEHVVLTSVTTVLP
Sequence of human orexin-2 receptor (O43614 whole entry): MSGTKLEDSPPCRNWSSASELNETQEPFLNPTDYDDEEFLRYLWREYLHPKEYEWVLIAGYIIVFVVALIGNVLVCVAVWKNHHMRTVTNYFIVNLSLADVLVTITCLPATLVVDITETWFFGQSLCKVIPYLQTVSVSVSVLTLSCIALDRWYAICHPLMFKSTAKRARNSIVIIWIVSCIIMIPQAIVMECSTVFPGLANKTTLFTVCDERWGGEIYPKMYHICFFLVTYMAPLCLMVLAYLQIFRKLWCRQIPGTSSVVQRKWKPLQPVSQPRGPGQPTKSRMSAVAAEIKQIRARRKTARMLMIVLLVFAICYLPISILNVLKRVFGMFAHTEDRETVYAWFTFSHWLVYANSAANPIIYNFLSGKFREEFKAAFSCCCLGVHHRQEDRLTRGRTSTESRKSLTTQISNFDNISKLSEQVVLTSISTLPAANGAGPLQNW

Row | Compound | IC50 (orexin-1; [1]) [µM] | IC50 (human orexin-2 receptor; [2]) [µM] | IC50 (orexin-1) [µM] | IC50 (human orexin-2 receptor) [µM]
1 | Cc1ccc(-n2nccn2)c(C(=O)N2CCC[C@H]2c2cn(-c3ccccc3)nn2)c1 [Example 536, (5-Methyl-2-[1,2,3]triazol-2-yl-phenyl)-[(S)-2-(1-phenyl-1H-[1,2,3]triazol-4-yl)-pyrrolidin-1-yl]-methanone] | 3.43 | 2.14 | – | –
2 | Cc1ccc(-n2nccn2)c(C(=O)N2CCC[C@@]2(C)c2nc(-c3ccccc3)no2)c1 [Example 540, [(S)-2-Methyl-2-(3-phenyl-[1,2,4]oxadiazol-5-yl)-pyrrolidin-1-yl]-(5-methyl-2-[1,2,3]triazol-2-yl-phenyl)-methanone] | 0.211 | 0.581 | – | –
3 | Cc1ccc(-n2nccn2)c(C(=O)N2CCC[C@@]2(C)c2nnc(-c3ccccc3OC(F)(F)F)[nH]2)c1 [Example 542, (5-Methyl-2-[1,2,3]triazol-2-yl-phenyl)-{(S)-2-methyl-2-[5-(2-trifluoromethoxy-phenyl)-4H-[1,2,4]triazol-3-yl]-pyrrolidin-1-yl}-methanone] | 0.033 | 0.028 | – | –
4 | O=C(c1cccs1)N1CCC[C@H]1c1nc(-c2ccccc2)no1 [Ref 1] | > 8.5 | > 10 | – | –
5 | O=C(c1cccs1)N1CCC[C@H]1c1nc(-c2cccc(Cl)c2)no1 [Ref 2] | 4.26 | 7.23 | – | –
6 | Cc1ccccc1-c1noc([C@@H]2CCCN2C(=O)c2cccs2)n1 [Ref 3] | 6.27 | > 10 | – | –
7 | O=C(c1ccoc1)N1CCC[C@H]1c1nc(-c2ccccc2)no1 [Ref 4] | > 8.5 | > 10 | – | –
8 | O=C(c1ccoc1)N1CCC[C@H]1c1nc(-c2cccc(Cl)c2)no1 [Ref 5] | > 8.5 | > 10 | – | –
9 | Cc1ccccc1-c1noc([C@@H]2CCCN2C(=O)c2ccoc2)n1 [Ref 6] | > 8.5 | > 10 | – | –
10 | Cc1onc(-c2ccccc2Cl)c1C(=O)N1CCC[C@H]1c1nc(-c2cccc(Cl)c2C)no1 [Ref 7] | 0.529 | 0.593 | – | –
11 | Cc1onc(-c2ccccc2Cl)c1C(=O)N1CCC[C@H]1c1noc(-c2cccc(Cl)c2C)n1 [Ref 8] | > 26.2 | > 21.8 | – | –
12 | Cc1onc(-c2ccccc2Cl)c1C(=O)N1CCC[C@H]1c1nnc(-c2cccc(Cl)c2C)o1 [Ref 9] | 11.1 | > 21.8 | – | –
13 | Cc1onc(-c2ccccc2Cl)c1C(=O)N1CCC[C@H]1c1nc(-c2ccccc2OC(F)(F)F)no1 [Ref 10] | 0.782 | 2.19 | – | –
14 | Cc1ccc(-n2nccn2)c(C(=O)N2CCC[C@H]2c2nc(-c3cccc(C)c3C)no2)c1 [compound 13, {(S)-2-[3-(2,3-Dimethyl-phenyl)-[1,2,4]oxadiazol-5-yl]-pyrrolidin-1-yl}-(5-methyl-2-[1,2,3]triazol-2-yl-phenyl)-methanone] | 0.07 | 0.013 | – | –
15 | Cc1ccc(-n2nccn2)c(C(=O)N2CCC[C@H]2c2nc(-c3ccccc3OC(F)(F)F)no2)c1 [compound 17, (5-Methyl-2-[1,2,3]triazol-2-yl-phenyl)-{(S)-2-[3-(2-trifluoromethoxy-phenyl)-[1,2,4]oxadiazol-5-yl]-pyrrolidin-1-yl}-methanone] | 0.008 | 0.005 | – | –
16 | Cc1ccc(-n2nccn2)c(C(=O)N2CCC[C@H]2c2nc(-c3cccc(Cl)c3)no2)c1 [compound 18] | – | 0.032 | 0.091 | –
17 | Cc1ccc(-n2nccn2)c(C(=O)N2CCC[C@H]2c2nc(-c3ccc4c(c3)OC(F)(F)O4)no2)c1 [compound 19, {(S)-2-[3-(2,2-Difluoro-benzo[1,3]dioxol-5-yl)-[1,2,4]oxadiazol-5-yl]-pyrrolidin-1-yl}-(5-methyl-2-[1,2,3]triazol-2-yl-phenyl)-methanone] | 1.86 | 0.652 | – | –
18 | Cc1ccc(-n2nccn2)c(C(=O)N2CCC[C@H]2c2nc(-c3ccc(F)c(F)c3)no2)c1 [compound 20, {(S)-2-[3-(3,4-Difluoro-phenyl)-[1,2,4]oxadiazol-5-yl]-pyrrolidin-1-yl}-(5-methyl-2-[1,2,3]triazol-2-yl-phenyl)-methanone] | 0.6 | 0.177 | – | –
19 | Cc1ccc(-n2nccn2)c(C(=O)N2CCC[C@H]2c2nc(-c3ccccc3Cl)no2)c1 [compound 21] | 0.339 | 0.019 | – | –
20 | Cc1ccc(-n2nccn2)c(C(=O)N2CCC[C@H]2c2nc(-c3cccc(Cl)c3C)no2)c1 [compound 23] | 0.04 | 0.007 | – | –
21 | Cc1ccc(-n2nccn2)c(C(=O)N2CCC[C@H]2c2nc(-c3c(C)cccc3Cl)no2)c1 [compound 24] | 0.472 | 0.104 | – | –
22 | Cc1ccc(-n2nccn2)c(C(=O)N2CCC[C@H]2c2nc(-c3cccc(C)c3Cl)no2)c1 [compound 27] | 0.125 | – | – | 0.008
23 | Cc1ccc(-n2nccn2)c(C(=O)N2CCC[C@H]2c2nc(-c3cccnc3Cl)no2)c1 [compound 28] | – | 0.033 | 2.61 | –

More lines, main results first:

Row | IC50 (orexin-1; [1]) [µM] | IC50 (human orexin-2 receptor; [2]) [µM] | Compound | IC50 (orexin-1) [µM] | IC50 (human orexin-2 receptor) [µM]
24 | 3.98 | 2.88 | C[C@@]1(c2nc(-c3ccccc3)no2)CCCN1C(=O)c1ccccc1-n1nccn1 [Example 537, [(S)-2-Methyl-2-(3-phenyl-[1,2,4]oxadiazol-5-yl)-pyrrolidin-1-yl]-(2-[1,2,3]triazol-2-yl-phenyl)-methanone] | – | –
25 | 0.104 | 0.114 | Cc1ccc(-n2nccn2)c(C(=O)N2CCC[C@@]2(C)c2nc(-c3cccc(Cl)c3C)no2)c1 [Example 541, {(S)-2-[3-(3-Chloro-2-methyl-phenyl)-[1,2,4]oxadiazol-5-yl]-2-methyl-pyrrolidin-1-yl}-(5-methyl-2-[1,2,3]triazol-2-yl-phenyl)-methanone] | – | –
26 | 0.058 | 0.006 | Cc1cc(C)cc(-c2noc([C@@H]3CCCN3C(=O)c3cc(C)ccc3-n3nccn3)n2)c1 [compound 11, {(S)-2-[3-(3,5-Dimethyl-phenyl)-[1,2,4]oxadiazol-5-yl]-pyrrolidin-1-yl}-(5-methyl-2-[1,2,3]triazol-2-yl-phenyl)-methanone] | – | –
27 | 0.796 | 0.816 | Cc1cc(C)nc(-c2noc([C@@H]3CCCN3C(=O)c3cc(C)ccc3-n3nccn3)n2)c1 [compound 12, {(S)-2-[3-(4,6-Dimethyl-pyridin-2-yl)-[1,2,4]oxadiazol-5-yl]-pyrrolidin-1-yl}-(5-methyl-2-[1,2,3]triazol-2-yl-phenyl)-methanone] | – | –
28 | 0.392 | 0.295 | Cc1ccc(-n2nccn2)c(C(=O)N2CCC[C@H]2c2nc(-c3cccc(F)c3)no2)c1 [compound 14, {(S)-2-[3-(3-Fluoro-phenyl)-[1,2,4]oxadiazol-5-yl]-pyrrolidin-1-yl}-(5-methyl-2-[1,2,3]triazol-2-yl-phenyl)-methanone] | – | –
29 | 0.021 | 0.008 | Cc1ccc(-n2nccn2)c(C(=O)N2CCC[C@H]2c2nc(-c3c[nH]c4ccccc34)no2)c1 [compound 15, {(S)-2-[3-(1H-Indol-3-yl)-[1,2,4]oxadiazol-5-yl]-pyrrolidin-1-yl}-(5-methyl-2-[1,2,3]triazol-2-yl-phenyl)-methanone] | – | –
30 | 0.128 | 0.016 | Cc1ccc(-n2nccn2)c(C(=O)N2CCC[C@H]2c2nc(-c3ccccc3C)no2)c1 [compound 16, (5-Methyl-2-[1,2,3]triazol-2-yl-phenyl)-[(S)-2-(3-o-tolyl-[1,2,4]oxadiazol-5-yl)-pyrrolidin-1-yl]-methanone] | – | –
31 | 0.942 | 0.322 | Cc1ccc(-n2nccn2)c(C(=O)N2CCC[C@H]2c2nc(-c3ccc4c(c3)OCO4)no2)c1 [compound 22, [(S)-2-(3-Benzo[1,3]dioxol-5-yl-[1,2,4]oxadiazol-5-yl)-pyrrolidin-1-yl]-(5-methyl-2-[1,2,3]triazol-2-yl-phenyl)-methanone] | – | –
32 | 0.019 | 0.011 | CCc1ccccc1-c1noc([C@@H]2CCCN2C(=O)c2cc(C)ccc2-n2nccn2)n1 [compound 25, {(S)-2-[3-(2-Ethyl-phenyl)-[1,2,4]oxadiazol-5-yl]-pyrrolidin-1-yl}-(5-methyl-2-[1,2,3]triazol-2-yl-phenyl)-methanone] | – | –
33 | 0.077 | 0.005 | Cc1ccc(-n2nccn2)c(C(=O)N2CCC[C@H]2c2nc(-c3cccc(F)c3C)no2)c1 [compound 26, {(S)-2-[3-(3-Fluoro-2-methyl-phenyl)-[1,2,4]oxadiazol-5-yl]-pyrrolidin-1-yl}-(5-methyl-2-[1,2,3]triazol-2-yl-phenyl)-methanone] | – | –

Source: patent publication US9493446B2, “Orexin receptor antagonists which are [ortho bi-(hetero-)aryl]-[2-(meta bi-(hetero-)aryl)-pyrrolidin-1-yl]-methanone derivatives” (Actelion Pharmaceuticals Ltd, priority 2012, dated 2016)
